Data: ChEMBL document CHEMBL1817616, “Synthesis, characterization and biological evaluation of some 16β-azolyl-3β-amino-5α-androstane derivatives as potential anticancer agents” (Eur J Med Chem, 2011)

Columns and labels:
HepG2 = assay: Anticancer activity against human HepG2 cells after 48 hrs by MTT assay; assay type: functional, cell-based; details: HepG2, 48 h
SW480 = assay: Anticancer activity against human SW480 cells after 48 hrs by MTT assay; assay type: functional, cell-based; details: SW480, 48 h
SiHa = assay: Anticancer activity against human SiHa cells after 48 hrs by MTT assay; assay type: functional, cell-based
A549 = assay: Anticancer activity against human A549 cells after 48 hrs by MTT assay; assay type: functional, cell-based; details: A549, 48 h
HeLa = assay: Anticancer activity against human HeLa cells after 48 hrs by MTT assay; assay type: functional, cell-based
HEK293 = assay: Cytotoxicity against human HEK293 cells after 48 hrs by MTT assay; assay type: cell-based; details: HEK293, 48 h

SMILES	IC50 (HepG2) [µM]	IC50 (SW480) [µM]	IC50 (SiHa) [µM]	IC50 (A549) [µM]	IC50 (HeLa) [µM]	IC50 (HEK293) [µM]
CC(=O)O[C@H]1[C@@H](n2cncn2)C[C@H]2[C@@H]3CC[C@H]4C[C@@H](N5CCCC5)CC[C@]4(C)[C@H]3CC[C@@]21C	> 50	> 50	> 50	> 50	> 50	
CC(=O)O[C@H]1[C@@H](n2cncn2)C[C@H]2[C@@H]3CC[C@H]4C[C@@H](N5CCCCC5)CC[C@]4(C)[C@H]3CC[C@@]21C	> 50	> 50	> 50	> 50	> 50	
CC(=O)O[C@H]1[C@@H](n2cncn2)C[C@H]2[C@@H]3CC[C@H]4C[C@@H](N5CCOCC5)CC[C@]4(C)[C@H]3CC[C@@]21C	19.5	> 50	> 50	> 50	22.3	
CC(=O)O[C@H]1[C@@H](n2cncn2)C[C@H]2[C@@H]3CC[C@H]4C[C@@H](N5CCN(C)CC5)CC[C@]4(C)[C@H]3CC[C@@]21C	23.5	> 50	> 50	39.7	> 50	
CCN(CC)[C@H]1CC[C@@]2(C)[C@@H](CC[C@@H]3[C@@H]2CC[C@@]2(C)[C@H]3C[C@H](n3cncn3)[C@@H]2OC(C)=O)C1	> 50	> 50	> 50	> 50	> 50	
CC(=O)O[C@H]1[C@@H](n2cncn2)C[C@H]2[C@@H]3CC[C@H]4C[C@@H](N(C)c5ccccc5)CC[C@]4(C)[C@H]3CC[C@@]21C	21.9	> 50	37.1	12.3	19.8	
CC(=O)O[C@H]1[C@@H](n2cncn2)C[C@H]2[C@@H]3CC[C@H]4C[C@@H](N(C)Cc5ccccc5)CC[C@]4(C)[C@H]3CC[C@@]21C	10.6	> 50	22.4	> 50	18.7	
CC(=O)O[C@H]1[C@@H](n2ccnn2)C[C@H]2[C@@H]3CC[C@H]4C[C@@H](N5CCCC5)CC[C@]4(C)[C@H]3CC[C@@]21C	> 50	> 50	> 50	> 50	> 50	
CC(=O)O[C@H]1[C@@H](n2ccnn2)C[C@H]2[C@@H]3CC[C@H]4C[C@@H](N5CCCCC5)CC[C@]4(C)[C@H]3CC[C@@]21C	> 50	> 50	> 50	> 50	> 50	
CC(=O)O[C@H]1[C@@H](n2ccnn2)C[C@H]2[C@@H]3CC[C@H]4C[C@@H](N5CCOCC5)CC[C@]4(C)[C@H]3CC[C@@]21C	> 50	31.8	47.8	40.3	> 50	
CC(=O)O[C@H]1[C@@H](n2ccnn2)C[C@H]2[C@@H]3CC[C@H]4C[C@@H](N5CCN(C)CC5)CC[C@]4(C)[C@H]3CC[C@@]21C	> 50	> 50	> 50	> 50	38.1	
CCN(CC)[C@H]1CC[C@@]2(C)[C@@H](CC[C@@H]3[C@@H]2CC[C@@]2(C)[C@H]3C[C@H](n3ccnn3)[C@@H]2OC(C)=O)C1	> 50	> 50	> 50	> 50	> 50	
CC(=O)O[C@H]1[C@@H](n2ccnn2)C[C@H]2[C@@H]3CC[C@H]4C[C@@H](N(C)c5ccccc5)CC[C@]4(C)[C@H]3CC[C@@]21C	9.35	> 50	11.7	18.9	72.1	
CC(=O)O[C@H]1[C@@H](n2ccnn2)C[C@H]2[C@@H]3CC[C@H]4C[C@@H](N(C)Cc5ccccc5)CC[C@]4(C)[C@H]3CC[C@@]21C	8.43	> 50	15.2	11.4	> 50	
CC(=O)O[C@H]1[C@@H](n2nnc3ccccc32)C[C@H]2[C@@H]3CC[C@H]4C[C@@H](N5CCCC5)CC[C@]4(C)[C@H]3CC[C@@]21C	> 50	> 50	> 50	> 50	> 50	
CC(=O)O[C@H]1[C@@H](n2nnc3ccccc32)C[C@H]2[C@@H]3CC[C@H]4C[C@@H](N5CCCCC5)CC[C@]4(C)[C@H]3CC[C@@]21C	> 50	> 50	> 50	22.7	29.6	
CC(=O)O[C@H]1[C@@H](n2nnc3ccccc32)C[C@H]2[C@@H]3CC[C@H]4C[C@@H](N5CCN(C)CC5)CC[C@]4(C)[C@H]3CC[C@@]21C	31.7	18.9	22	8.99	> 50	
CC(=O)O[C@H]1[C@@H](n2nnc3ccccc32)C[C@H]2[C@@H]3CC[C@H]4C[C@@H](N5CCOCC5)CC[C@]4(C)[C@H]3CC[C@@]21C	> 50	> 50	> 50	12.2	19.8	
CCN(CC)[C@H]1CC[C@@]2(C)[C@@H](CC[C@@H]3[C@@H]2CC[C@@]2(C)[C@H]3C[C@H](n3nnc4ccccc43)[C@@H]2OC(C)=O)C1	> 50	> 50	37.2	> 50	> 50	
CC(=O)O[C@H]1[C@@H](n2nnc3ccccc32)C[C@H]2[C@@H]3CC[C@H]4C[C@@H](N(C)c5ccccc5)CC[C@]4(C)[C@H]3CC[C@@]21C	6.36	18.6	9.83	5.12	10.4	> 80
CC(=O)O[C@H]1[C@@H](n2nnc3ccccc32)C[C@H]2[C@@H]3CC[C@H]4C[C@@H](N(C)Cc5ccccc5)CC[C@]4(C)[C@H]3CC[C@@]21C	5.54	> 50	26.2	7.72	11.3	48.7
CC(=O)O[C@H]1[C@@H](n2cnc3ccccc32)C[C@H]2[C@@H]3CC[C@H]4C[C@@H](N5CCCC5)CC[C@]4(C)[C@H]3CC[C@@]21C	> 50	> 50	37.1	39.6	> 50	
CC(=O)O[C@H]1[C@@H](n2cnc3ccccc32)C[C@H]2[C@@H]3CC[C@H]4C[C@@H](N5CCCCC5)CC[C@]4(C)[C@H]3CC[C@@]21C	29.6	> 50	18.7	> 50	> 50	
CC(=O)O[C@H]1[C@@H](n2cnc3ccccc32)C[C@H]2[C@@H]3CC[C@H]4C[C@@H](N5CCOCC5)CC[C@]4(C)[C@H]3CC[C@@]21C	> 50	> 50	12.3	16.1	> 50	
CC(=O)O[C@H]1[C@@H](n2cnc3ccccc32)C[C@H]2[C@@H]3CC[C@H]4C[C@@H](N5CCN(C)CC5)CC[C@]4(C)[C@H]3CC[C@@]21C	11.7	> 50	14.9	22.4	> 50	
CCN(CC)[C@H]1CC[C@@]2(C)[C@@H](CC[C@@H]3[C@@H]2CC[C@@]2(C)[C@H]3C[C@H](n3cnc4ccccc43)[C@@H]2OC(C)=O)C1	22.1	> 50	29.8	> 50	> 50	
CC(=O)O[C@H]1[C@@H](n2cnc3ccccc32)C[C@H]2[C@@H]3CC[C@H]4C[C@@H](N(C)c5ccccc5)CC[C@]4(C)[C@H]3CC[C@@]21C	> 50	9.22	6.67	28.4	4.51	> 80
CC(=O)O[C@H]1[C@@H](n2cnc3ccccc32)C[C@H]2[C@@H]3CC[C@H]4C[C@@H](N(C)Cc5ccccc5)CC[C@]4(C)[C@H]3CC[C@@]21C	5.14	15.8	11.9	4.22	6.04	> 80
COc1cccc2c1C(=O)c1c(O)c3c(c(O)c1C2=O)C[C@@](O)(C(=O)CO)C[C@@H]3O[C@H]1C[C@H](N)[C@H](O)[C@H](C)O1 [DOXORUBICIN]		0.06	0.45		0.23	
